# According to US10004701B2, “Methods and compositions for treating infection” (UNIVERSITY OF ROCHESTER, priority 2012, dated 2018):
# Where a name gives a salt, the structure may show the parent alone. Read-outs that look alike come from different tables or passages of the source.
# Columns and labels:
# Assay in all cases: AK assay 384-well format, Prestwick library screening
# E. faecium = format: cell-based, Enterococcus faecium; details: Enterococcus faecium, 3 h
# [1] = tested on: S. aureus strain USA300-0114; format: cell-based, Staphylococcus aureus; details: Staphylococcus aureus, USA300, 3 h
# K. pneumoniae = format: cell-based, Klebsiella pneumoniae; details: Klebsiella pneumoniae, 3 h
# [2] = tested on: A. baumannii strain 98-37-09; format: cell-based, Acinetobacter baumannii; details: Acinetobacter baumannii, 983709, 3 h
# P. aeruginosa = format: cell-based, Pseudomonas aeruginosa; details: Pseudomonas aeruginosa, 3 h
# E. cloacae = format: cell-based, Enterobacter cloacae; details: Enterobacter cloacae, 3 h
# E. coli = format: cell-based, Escherichia coli; details: Escherichia coli, 3 h
# [3] = 50 μM final drug concentration, planktonic, cutoff for positive 3-fold increase, read-out: AK-based Prestwick Library Screening Results, E. faecium (fold increase in extracellular AK activity)
# [4] = 50 μM final drug concentration, planktonic, cutoff for positive 3-fold increase, read-out: AK-based Prestwick Library Screening Results, S. aureus (fold increase in extracellular AK activity)
# [5] = 50 μM final drug concentration, planktonic, cutoff for positive 3-fold increase, read-out: AK-based Prestwick Library Screening Results, K. pneumoniae (fold increase in extracellular AK activity)
# [6] = 50 μM final drug concentration, planktonic, cutoff for positive 3-fold increase, read-out: AK-based Prestwick Library Screening Results, A. baumannii (fold increase in extracellular AK activity)
# [7] = 50 μM final drug concentration, planktonic, cutoff for positive 3-fold increase, read-out: AK-based Prestwick Library Screening Results, P. aeruginosa (fold increase in extracellular AK activity)
# [8] = 50 μM final drug concentration, planktonic, cutoff for positive 3-fold increase, read-out: AK-based Prestwick Library Screening Results, E. cloacae (fold increase in extracellular AK activity)
# [9] = 50 μM final drug concentration, planktonic, cutoff for positive 3-fold increase, read-out: AK-based Prestwick Library Screening Results, E. coli (fold increase in extracellular AK activity)
# [10] = 50 μM final drug concentration, cutoff for positive-scoring molecules 3-fold increase, read-out: AK-based Prestwick Library Screening Results, E. faecium (fold increase in extracellular AK activity)
# [11] = 50 μM final drug concentration, cutoff for positive-scoring molecules 3-fold increase, read-out: AK-based Prestwick Library Screening Results, S. aureus (fold increase in extracellular AK activity)
# [12] = 50 μM final drug concentration, cutoff for positive-scoring molecules 3-fold increase, read-out: AK-based Prestwick Library Screening Results, K. pneumoniae (fold increase in extracellular AK activity)
# [13] = 50 μM final drug concentration, cutoff for positive-scoring molecules 3-fold increase, read-out: AK-based Prestwick Library Screening Results, A. baumannii (fold increase in extracellular AK activity)
# [14] = 50 μM final drug concentration, cutoff for positive-scoring molecules 3-fold increase, read-out: AK-based Prestwick Library Screening Results, P. aeruginosa (fold increase in extracellular AK activity)
# [15] = 50 μM final drug concentration, cutoff for positive-scoring molecules 3-fold increase, read-out: AK-based Prestwick Library Screening Results, E. cloacae (fold increase in extracellular AK activity)
# [16] = 50 μM final drug concentration, cutoff for positive-scoring molecules 3-fold increase, read-out: AK-based Prestwick Library Screening Results, E. coli (fold increase in extracellular AK activity)
# [17] = planktonic E. faecium, 50 μM final drug concentration, 384-well, cutoff for positive-scoring molecules 3-fold increase, read-out: AK-based Prestwick Library Screening Results: E. faecium (increase in extracellular AK activity)
# [18] = planktonic S. aureus, 50 μM final drug concentration, 384-well, cutoff for positive-scoring molecules 3-fold increase, read-out: AK-based Prestwick Library Screening Results: S. aureus (increase in extracellular AK activity)
# [19] = planktonic K. pneumoniae, 50 μM final drug concentration, 384-well, cutoff for positive-scoring molecules 3-fold increase, read-out: AK-based Prestwick Library Screening Results: K. pneumoniae (increase in extracellular AK activity)
# [20] = planktonic A. baumannii, 50 μM final drug concentration, 384-well, cutoff for positive-scoring molecules 3-fold increase, read-out: AK-based Prestwick Library Screening Results: A. baumannii (increase in extracellular AK activity)
# [21] = planktonic P. aeruginosa, 50 μM final drug concentration, 384-well, cutoff for positive-scoring molecules 3-fold increase, read-out: AK-based Prestwick Library Screening Results: P. aeruginosa (increase in extracellular AK activity)
# [22] = planktonic E. cloacae, 50 μM final drug concentration, 384-well, cutoff for positive-scoring molecules 3-fold increase, read-out: AK-based Prestwick Library Screening Results: E. cloacae (increase in extracellular AK activity)
# [23] = planktonic E. coli, 50 μM final drug concentration, 384-well, cutoff for positive-scoring molecules 3-fold increase, read-out: AK-based Prestwick Library Screening Results: E. coli (increase in extracellular AK activity)
structure (smiles),measurement,setting,value
C=C[C@H]1C[N@@]2CC[C@H]1C[C@@H]2[C@@H](O)c1ccnc2ccccc12 [Cinchonine],fold induction at 50 µM,E. faecium; [3],1.1
same,fold induction at 50 µM,[1]; [4],1.6
same,fold induction at 50 µM,K. pneumoniae; [5],1
same,fold induction at 50 µM,[2]; [6],1.1
same,fold induction at 50 µM,P. aeruginosa; [7],1.1
same,fold induction at 50 µM,E. cloacae; [8],1.5
same,fold induction at 50 µM,E. coli; [9],1.2
CCn1nc(C(=O)O)c(=O)c2cc3c(cc21)OCO3 [Cinoxacin],fold induction at 50 µM,E. faecium; [10],1.1
same,fold induction at 50 µM,[1]; [11],1.3
same,fold induction at 50 µM,K. pneumoniae; [12],2.1
same,fold induction at 50 µM,[2]; [13],1.3
same,fold induction at 50 µM,P. aeruginosa; [14],1.2
same,fold induction at 50 µM,E. cloacae; [15],1.4
same,fold induction at 50 µM,E. coli; [16],10.3
CC(C)(Oc1ccc(C2CC2(Cl)Cl)cc1)C(=O)O (stereo not shown) [Ciprofibrate],fold induction at 50 µM,"E. faecium; planktonic E. faecium, 50 μM final drug concentration, positive cutoff 3-fold increase, read-out: AK-based Prestwick library screening result, E. faecium (fold increase in extracellular AK activity)",0.9
same,fold induction at 50 µM,"[1]; planktonic S. aureus, 50 μM final drug concentration, positive cutoff 3-fold increase, read-out: AK-based Prestwick library screening result, S. aureus (fold increase in extracellular AK activity)",0.7
same,fold induction at 50 µM,"K. pneumoniae; planktonic K. pneumoniae, 50 μM final drug concentration, positive cutoff 3-fold increase, read-out: AK-based Prestwick library screening result, K. pneumoniae (fold increase in extracellular AK activity)",0.8
same,fold induction at 50 µM,"[2]; planktonic A. baumannii, 50 μM final drug concentration, positive cutoff 3-fold increase, read-out: AK-based Prestwick library screening result, A. baumannii (fold increase in extracellular AK activity)",0.8
same,fold induction at 50 µM,"P. aeruginosa; planktonic P. aeruginosa, 50 μM final drug concentration, positive cutoff 3-fold increase, read-out: AK-based Prestwick library screening result, P. aeruginosa (fold increase in extracellular AK activity)",0.7
same,fold induction at 50 µM,"E. cloacae; planktonic E. cloacae, 50 μM final drug concentration, positive cutoff 3-fold increase, read-out: AK-based Prestwick library screening result, E. cloacae (fold increase in extracellular AK activity)",1.2
same,fold induction at 50 µM,"E. coli; planktonic E. coli, 50 μM final drug concentration, positive cutoff 3-fold increase, read-out: AK-based Prestwick library screening result, E. coli (fold increase in extracellular AK activity)",0.8
COc1cc(N)c(Cl)cc1C(=O)NC1CCN(CCCOc2ccc(F)cc2)CC1OC (stereo not shown) [Cisapride],fold induction at 50 µM,"E. faecium; planktonic E. faecium, 50 μM final drug concentration, cutoff for positive-scoring molecules 3-fold increase, read-out: AK-based Prestwick Library Screening Results, E. faecium (increase in extracellular AK activity)",0.9
same,fold induction at 50 µM,"[1]; planktonic S. aureus, 50 μM final drug concentration, cutoff for positive-scoring molecules 3-fold increase, read-out: AK-based Prestwick Library Screening Results, S. aureus (increase in extracellular AK activity)",0.6
same,fold induction at 50 µM,"K. pneumoniae; planktonic K. pneumoniae, 50 μM final drug concentration, cutoff for positive-scoring molecules 3-fold increase, read-out: AK-based Prestwick Library Screening Results, K. pneumoniae (increase in extracellular AK activity)",0.7
same,fold induction at 50 µM,"[2]; planktonic A. baumannii, 50 μM final drug concentration, cutoff for positive-scoring molecules 3-fold increase, read-out: AK-based Prestwick Library Screening Results, A. baumannii (increase in extracellular AK activity)",1.1
same,fold induction at 50 µM,"P. aeruginosa; planktonic P. aeruginosa, 50 μM final drug concentration, cutoff for positive-scoring molecules 3-fold increase, read-out: AK-based Prestwick Library Screening Results, P. aeruginosa (increase in extracellular AK activity)",0.9
same,fold induction at 50 µM,"E. cloacae; planktonic E. cloacae, 50 μM final drug concentration, cutoff for positive-scoring molecules 3-fold increase, read-out: AK-based Prestwick Library Screening Results, E. cloacae (increase in extracellular AK activity)",0.9
same,fold induction at 50 µM,"E. coli; planktonic E. coli, 50 μM final drug concentration, cutoff for positive-scoring molecules 3-fold increase, read-out: AK-based Prestwick Library Screening Results, E. coli (increase in extracellular AK activity)",0.9
CN(C)CCCC1(c2ccc(F)cc2)OCc2cc(C#N)ccc21 (stereo not shown) [Citalopram Hydrobromide],fold induction at 50 µM,E. faecium; [10],1
same,fold induction at 50 µM,[1]; [11],1
same,fold induction at 50 µM,K. pneumoniae; [12],0.9
same,fold induction at 50 µM,[2]; [13],0.9
same,fold induction at 50 µM,P. aeruginosa; [14],1.2
same,fold induction at 50 µM,E. cloacae; [15],1.5
same,fold induction at 50 µM,E. coli; [16],1
COc1cc(N)c(Cl)cc1C(=O)NC1CCN(Cc2ccccc2)CC1 [Clebopride maleate],fold induction at 50 µM,E. faecium; [3],1.1
same,fold induction at 50 µM,[1]; [4],1.2
same,fold induction at 50 µM,K. pneumoniae; [5],1
same,fold induction at 50 µM,[2]; [6],1
same,fold induction at 50 µM,P. aeruginosa; [7],0.9
same,fold induction at 50 µM,E. cloacae; [8],1.6
same,fold induction at 50 µM,E. coli; [9],1
Clc1ccc(Cn2c(CN3CCCC3)nc3ccccc32)cc1 [Clemizole hydrochloride],fold induction at 50 µM,E. faecium; [17],1.2
same,fold induction at 50 µM,[1]; [18],1.6
same,fold induction at 50 µM,K. pneumoniae; [19],1
same,fold induction at 50 µM,[2]; [20],1.6
same,fold induction at 50 µM,P. aeruginosa; [21],1.2
same,fold induction at 50 µM,E. cloacae; [22],1.4
same,fold induction at 50 µM,E. coli; [23],1.2
CC(C)(C)NCC(O)c1cc(Cl)c(N)c(Cl)c1 (stereo not shown) [Clenbuterol hydrochloride],fold induction at 50 µM,"E. faecium; planktonic E. faecium, 50 μM final drug concentration, […], read-out: AK-based Prestwick Library Screening Results, E. faecium (increase in extracellular AK activity)",0.9
same,fold induction at 50 µM,"[1]; planktonic S. aureus, 50 μM final drug concentration, […], read-out: AK-based Prestwick Library Screening Results, S. aureus (increase in extracellular AK activity)",0.7
same,fold induction at 50 µM,"K. pneumoniae; planktonic K. pneumoniae, 50 μM final drug concentration, […], read-out: AK-based Prestwick Library Screening Results, K. pneumoniae (increase in extracellular AK activity)",0.7
same,fold induction at 50 µM,"[2]; planktonic A. baumannii, 50 μM final drug concentration, […], read-out: AK-based Prestwick Library Screening Results, A. baumannii (increase in extracellular AK activity)",0.8
same,fold induction at 50 µM,"P. aeruginosa; planktonic P. aeruginosa, 50 μM final drug concentration, […], read-out: AK-based Prestwick Library Screening Results, P. aeruginosa (increase in extracellular AK activity)",0.8
same,fold induction at 50 µM,"E. cloacae; planktonic E. cloacae, 50 μM final drug concentration, […], read-out: AK-based Prestwick Library Screening Results, E. cloacae (increase in extracellular AK activity)",0.9
same,fold induction at 50 µM,"E. coli; planktonic E. coli, 50 μM final drug concentration, […], read-out: AK-based Prestwick Library Screening Results, E. coli (increase in extracellular AK activity)",0.8
C[N+]12CCC(CC1)C(OC(=O)C(O)(c1ccccc1)c1ccccc1)C2 (stereo not shown) [Clidinium bromide],fold induction at 50 µM,"E. faecium; read-out: AK-based Prestwick Library Screening Results, E. faecium (fold increase in extracellular AK activity)",0.9
same,fold induction at 50 µM,"[1]; read-out: AK-based Prestwick Library Screening Results, S. aureus (fold increase in extracellular AK activity)",0.9
same,fold induction at 50 µM,"K. pneumoniae; read-out: AK-based Prestwick Library Screening Results, K. pneumoniae (fold increase in extracellular AK activity)",0.8
same,fold induction at 50 µM,"[2]; read-out: AK-based Prestwick Library Screening Results, A. baumannii (fold increase in extracellular AK activity)",1.1
same,fold induction at 50 µM,"P. aeruginosa; read-out: AK-based Prestwick Library Screening Results, P. aeruginosa (fold increase in extracellular AK activity)",1.1
same,fold induction at 50 µM,"E. cloacae; read-out: AK-based Prestwick Library Screening Results, E. cloacae (fold increase in extracellular AK activity)",1.3
same,fold induction at 50 µM,"E. coli; read-out: AK-based Prestwick Library Screening Results, E. coli (fold increase in extracellular AK activity)",1
CCC[C@@H]1C[C@@H](C(=O)N[C@@H]([C@H]2O[C@H](SC)[C@H](O)[C@@H](O)[C@H]2O)[C@H](C)Cl)N(C)C1 [Clindamycin hydrochloride],fold induction at 50 µM,E. faecium; [17],1.2
same,fold induction at 50 µM,[1]; [18],8.4
same,fold induction at 50 µM,K. pneumoniae; [19],0.5
same,fold induction at 50 µM,[2]; [20],1
same,fold induction at 50 µM,P. aeruginosa; [21],1.1
same,fold induction at 50 µM,E. cloacae; [22],1.7
same,fold induction at 50 µM,E. coli; [23],0.8
